{"source": "paper PMC9227536", "about": "“Prediction of Pharmacokinetics of IDP-73152 in Humans Using Physiologically-Based Pharmacokinetics” (Pharmaceutics, 2022)", "key": {"Stability in plasma, rat": {"experiment": "Stability in plasma, rat", "type": "in vitro ADME, rats", "method": "The unbound fractions of IDP-73152 in various matrices were measured according to the manufacturer's instructions for the rapid equilibrium dialysis (RED) device (ThermoFisher Scientific, Waltham, MA, USA). Briefly, IDP-73152 was added to the plasma or the microsomal/hepatocyte incubation buffer from various species (i.e., mouse, rat, dog, and human for microsomal incubation; rat for hepatocyte incubation) to obtain final concentrations of the compound at 0.3, 1, and 3 μM. After the membrane insert was placed in the RED plate, the solution containing IDP-73152 was added (400 μL) to the sample chamber, and the dialysis buffer (600 μL) was added to the buffer chamber. The RED plate was sealed with parafilm and then incubated at 37 °C in the orbital shaker (Lab Companion, Daejeon, Korea) at 100 rpm for 5 h. […] The IDP-73152 concentration in the buffer/sample chambers (i.e., CBuffer Chamber and CSample Chamber) was determined by an assay. Thus, the fraction unbound was defined as:(2) % Fraction unbound=(CBuffer Chamber/CSample Chamber)×100% When necessary, the stability of IDP-73152 in the matrix was also determined at 5 h. […] Accordingly, the kinetics of IDP-73152 instability were determined in the rat blood at a final concentration of 0.3 μM. […]"}, "[1]": {"experiment": "PBPK model prediction, mice", "text": "In this study, the PBPK model involving ten tissues (i.e., adipose tissue, brain, heart, kidney, liver, lung, muscle, skin, spleen, and testis (Figure 2; see Appendix A for detailed mathematical descriptions)) was considered to be applicable for the description of IDP-73152 PK in rats, mice, dogs, and humans. Physiological variables were obtained from the literature; they are summarized in Supplementary Table S1.\nFor the estimation of the volume of the distribution of IDP-73512 in rats, the steady-state volume of distribution (Vss) was calculated using the following equation [30]:(10) Vss=VP+Vrbc×EP+∑VT,i×KP,ss,i, where Vp, Vrbc, and VT,i are the volumes of plasma, red blood cells, and tissues, respectively. The erythrocyte-to-plasma partition coefficient (EP), is calculated by EP=1+(BP−1)/Hematocrit . The KP,ss for each tissue obtained from Equation (8) was applied for Equation (10). For the case of non-eliminating organs, the KP,ss was regarded as the tissue-to-plasma partition coefficient (KP) in PBPK equations (Appendix A). For the case of the liver—i.e., the eliminating organ—the KP,ss (KP,ss,LI) had to be corrected to account for the equilibrium being altered by the elimination. Thus, a PBPK-operative KP for liver (KP,LI) was calculated using the following equation [31]:(11) KP,LI=KP,ss,LI/(1−ER), where ER is the hepatic extraction ratio of the compound (i.e., CLh/(QLI·BP)). In this study, a compartmental absorption and transit (CAT) model consisting of stomach and five intestinal segments was considered for the description of the intestinal absorption kinetics of IDP-73152 in animals and humans. We assumed that the initial compartment denoted the stomach (Equation (12)), and the subsequent three compartments represented the small intestine and two additional compartments for the large intestine (i.e., a total of six compartments, with absorption occurring in the five intestinal compartments) (Equation (13)). The differential equations describing the rate of drug absorption and transit in the gastrointestinal tract can be written as:\nFor the intestine, viz. i = 1~5:(13) dMi/dt=Kt,i−1×Mi−1−(Kt,i+ka,i)×Mi, where Ms is the amount of drug in the stomach; Mi is the amount of drug in the i-th intestinal segment; Ks, Kt,i, and ka,i are the rate constants of gastric emptying, intestinal transit, and the segmental absorption rate, respectively. In Equation (13) at i = 1, Kt,0 and M0 represent Ks and Ms, respectively. […] The absorption rate constant in the intestinal segments in humans, ka,i,human, was assumed to be identical along the segments and calculated as follows: first, Peff was empirically estimated from the Caco-2 cell permeability (Papp):(14) LogPeff=0.4926×LogPapp−0.1454 […]"}}, "data": [{"smiles": "CC(C)(C)[C@H](NC(=O)[C@H](CC1CCCC1)CN(O)C=O)C(=O)N1CCC(NCc2cc(F)c(F)cc2F)CC1", "note": "[IDP-73152]", "values": [{"measurement": "stability in blood and plasma", "setting": "Stability in plasma, rat; rat blood and plasma, preliminary study", "value": "unstable"}, {"measurement": "percentage remaining in plasma at 5 h", "setting": "Stability in plasma, rat; rats plasma, 5 h, 37 °C", "value": "65.3 ± 13.7", "unit": "%"}, {"measurement": "AUC ratio", "setting": "[1]; intravenous 10 mg/kg", "value": 1.15}, {"measurement": "Cmax ratio without the scaling (SF)", "setting": "[1]; oral", "value": 1.72}, {"measurement": "AUC ratio", "setting": "[1]; oral 20 mg/kg", "value": 0.880}, {"measurement": "Cmax ratio", "setting": "[1]; oral 20 mg/kg", "value": 0.906}]}]}
